Source: patent US9545384B2, “Nanoparticles comprising drug, a non-ionizable cellulosic polymer and tocopheryl polyethylene glocol succinate” (Bend Research, Inc., priority 2007, dated 2017)
Values after ≈ are worked out from the molar mass of the structure shown.

How the values were obtained:
Log P = assay type: physicochemical; details: octanol/water
Text: The first property of hydrophobic drugs is that they are extremely hydrophobic. Log P, defined as the base 10 logarithm of the ratio of the drug solubility in octanol to the drug solubility in water, is a widely accepted measure of hydrophobicity. By “extremely hydrophobic” is meant that the Log P value of the drug is at least 4.0, preferably at least 4.5, and most preferably at least 5.0. Log P may be measured experimentally or calculated using methods known in the art. When using a calculated value for Log P, the highest value calculated using any generally accepted method for calculating Log P is used. Calculated Log P values are often referred to by the calculation method, such as C log P, A log P, and M log P. The Log P may also be estimated using fragmentation methods, such as Crippen's fragmentation method (27 J. Chem. Inf. Comput. Sci. 21 (1987)); Viswanadhan's fragmentation method (29 J. Chem. Inf. Comput. Sci. 163 (1989)); or Broto's fragmentation method (19 Eur. J. Med. Chem.-Chim. Theor. 71 (1984). Preferably the Log P value is calculated by using the average value estimated using Crippen's, Viswanadhan's, and Broto's fragmentation methods.

[1] = Solubility of drug in water; assay type: physicochemical
[2] = Solubility of drug in model fasted duodenal (MFD) solution; assay type: physicochemical; details: fassgf or other biorelevant
[3] = for Observations: pH 6.5
Experimental: The polymer is a poorly aqueous soluble non-ionizable cellulosic polymer. […] An appropriate PBS solution is an aqueous solution comprising 20 mM sodium phosphate (Na2HPO4), 47 mM potassium phosphate (KH2PO4), 87 mM NaCl, and 0.2 mM KCl, adjusted to pH 6.5 with NaOH. A test to determine whether the polymer is insoluble may be performed as follows. The polymer is initially present in bulk powder form with average particle sizes of greater than about 1 micron. The polymer alone is administered at a concentration of 0.2 mg/mL to the PBS solution and stirred for approximately 1 hour at room temperature. Next, a nylon 0.45 μm filter is weighed, and the polymer solution is filtered. The filter is dried overnight at 40° C., and weighed the following morning. The amount of polymer dissolved is calculated from the amount of polymer added to the PBS solution minus the amount of polymer remaining on the filter (mg). […] These polymers were evaluated using the following procedure to determine their aqueous solubility. First, 0.2 mg/mL of the polymer is added to a PBS solution consisting of 20 mM Na2HPO4, 47 mM KH2PO4, 87 mM NaCl, and 0.2 mM KCl, adjusted to pH 6.5 with NaOH. The polymer is stirred in the PBS solution for approximately 1 hour at room temperature. Next, the polymer solution is filtered through a nylon 0.45 μm filter that had been weighed dry prior to filtration. The filter is dried overnight at 40° C., and weighed the following morning. The amount of soluble polymer is calculated from amount of polymer added to form the polymer solution minus the amount of polymer remaining on the filter.

Molecule | solubility [1] [µg/mL] | solubility [2] [µg/mL] | Soluble at pH 6.5 [3] [mg/mL] | Observations [3] | other results
Cc1onc(-c2ccccc2)c1-c1ccc(S(N)(=O)=O)cc1 [Drug 1, 4-(5-methyl-3-phenyl-4-isoxazolyl)benzenesulfonamide] | ~10 (≈ 31.8 µM) |  |  |  | logP (Log P): ~3
CC[C@@H]1C[C@H](N(Cc2cc(C(F)(F)F)cc(C(F)(F)F)c2)C(C)=O)c2cc(C(F)(F)F)ccc2N1C(=O)OC(C)C [Drug 2, [2R,4S]-4-[acetyl-(3,5-bis-trifluoromethyl-benzyl)-amino]-2-ethyl-6-trifluoromethyl-3,4-dihydro-2H-quinoline-1-carboxylic acid isopropyl ester] |  | ~11 (≈ 18.4 µM) |  |  | 
Cc1ccc(-c2cc(C(F)(F)F)nn2-c2ccc(S(N)(=O)=O)cc2)cc1 [Drug 3, 4-[5-(4-methylphenyl)-3-(trifluoromethyl)-1H-pyrazol-1-yl]benzenesulfonamide, reference compound] |  | ~40 (≈ 105 µM) |  |  | 
CCOC(=O)N1c2ccc(C(F)(F)F)cc2[C@@H](N(Cc2cc(C(F)(F)F)cc(C(F)(F)F)c2)C(=O)OC)C[C@H]1CC [Torcetrapib, [2R,4S]4-[(3,5-bis-trifluoromethyl-benzyl)-methoxycarbonyl-amino]-2-ethyl-6-trifluoromethyl-3,4-dihydro-2H-quinoline-1-carboxylic acid ethyl ester] | < 0.1 |  |  |  | 
Cellulose Acetate |  |  | 0.03 | Fine particle | 
Ethylcellulose |  |  | <0.001 | Fine particle | 
